Assays:
[1] = system: CT26; test: CT26 viability following in vitro treatment; format: cell-based, mice; details: in vitro 24 h; only 20 μM vs 0 μM adjusted p=0.0463, other concentrations N.S.
Method: FIG. 7A and FIG. 7B show CT26 (FIG. 7A) and MC-38 (FIG. 7B) viability following in vitro treatment with 3AC for 24 h at indicated doses. Relative viability is expressed as frequency compared to solvent only treated cells. Kill curve summarizes pooled data from three independent experiments using six replicate wells/concentration with mean±SEM indicated. BALB/C mice were challenged with subcutaneous injection of CT26 colon carcinoma cells in the right flank. Mice were treated with either 2 consecutive days of 3AC or vehicle control each week as in FIG. 4A. Tumor size at […] 28 days (FIG. 7C), and tumor weight on day 28 determined after dissection of tumor (FIG. 7E). […] C57BL/6 mice were challenged with subcutaneous injection of MC-38 colon carcinoma cells in the right flank. Mice were treated with either 2 consecutive days of SHIP inhibitor or vehicle control each week as in FIG. 4A. Tumor size at 14, 21 and 25 days (FIG. 7D), and tumor weight (FIG. 7F) on day 25 were determined after dissection of tumor. […] FIG. 7A (n=18 per group. One-way ANOVA with Dunnett's multiple comparisons. 0 μM vs. 20 μM Adjusted p value=0.0463. All other concentrations of SHIP inhibitor compared with solvent only N.S.). FIG. 7B (n=18 per group. One-way ANOVA with Dunnett's multiple comparisons. All concentrations of SHIP inhibitor compared with solvent only N.S.). […]

[2] = system: MC-38 colon carcinoma cells; test: Subcutaneous MC-38 colon carcinoma model; format: in vivo, C57BL/6 mice
Method: FIG. 7A and FIG. 7B show CT26 (FIG. 7A) and MC-38 (FIG. 7B) viability following in vitro treatment with 3AC for 24 h at indicated doses. Relative viability is expressed as frequency compared to solvent only treated cells. Kill curve summarizes pooled data from three independent experiments using six replicate wells/concentration with mean±SEM indicated. BALB/C mice were challenged with subcutaneous injection of CT26 colon carcinoma cells in the right flank. Mice were treated with either 2 consecutive days of 3AC or vehicle control each week as in FIG. 4A. Tumor size at […] 28 days (FIG. 7C), and tumor weight on day 28 determined after dissection of tumor (FIG. 7E). […] C57BL/6 mice were challenged with subcutaneous injection of MC-38 colon carcinoma cells in the right flank. Mice were treated with either 2 consecutive days of SHIP inhibitor or vehicle control each week as in FIG. 4A. Tumor size at 14, 21 and 25 days (FIG. 7D), and tumor weight (FIG. 7F) on day 25 were determined after dissection of tumor. […] FIG. 7A (n=18 per group. One-way ANOVA with Dunnett's multiple comparisons. 0 μM vs. 20 μM Adjusted p value=0.0463. All other concentrations of SHIP inhibitor compared with solvent only N.S.). FIG. 7B (n=18 per group. One-way ANOVA with Dunnett's multiple comparisons. All concentrations of SHIP inhibitor compared with solvent only N.S.). FIGS. 7C-7F graphs represent data from one of two independent experiments. FIG. 7C (n=10. Day 14 p<0.0001, Unpaired t test with Welch's correction. Day 21 p<0.0001, two-tailed student's t-test. Day 28 p<0.0001, two-tailed Student's t-test). FIG. 7E (n=10. P<0.0001, two-tailed Student's t-test) FIG. 7D (n=10. Day 14 p=0.0005, two-tailed student's t-test. Day 21 p=0.0009, two-tailed Student's t-test. Day 25 p=0.0009, two-tailed student's t-test). FIG. 7F (n=10. P=0.0067, two-tailed student's t-test).
Colorectal cancer is the second leading cause of cancer mortality in the United States (Siegel, R. L. et al., Colorectal cancer statistics, 2017. CA Cancer J Clin. (2017)). […]

CC(C)CCC[C@@H](C)[C@H]1CC[C@H]2[C@@H]3CCC4C[C@H](N)CC[C@]4(C)[C@H]3CC[C@]12C (stereo partly drawn) [Compound 3AC, 3-α-aminocholestane]
CT26 viability (direct killing) [1]: resistant to direct killing | tumor weight ([2]; day 25, vs vehicle): significant reduction | tumor size ([2]; two consecutive days each week, days 14, 21, 25, vs vehicle): significant reduction | histological analysis (H&E) of tumors ([2]; vs vehicle): prominent zones of tumor cell death

— patent US11952328B2, “Selective ship inhibitors for treating disease” (THE RESEARCH FOUNDATION FOR THE STATE UNIVERSITY OF NEW YORK, priority 2018, dated 2024)
